ChEMBL document CHEMBL1127911, “Synthesis of sulphur heterocycles as hepatoprotectants : part I” (1994)

Columns and labels:
Format in all cases: functional
[1] = system: Rattus norvegicus; assay: % protection measured by glutamate oxaloacetate transaminase level, against thioacetamide-induced hepatic damage in rats, at 6 mg/Kg peroral dose
[2] = system: Rattus norvegicus; assay: % protection of glutamate pyruvate transaminase level, against thioacetamide-induced hepatic damage in rats, at 6 mg/Kg peroral dose
[3] = system: Rattus norvegicus; assay: Tested for hepatoprotective activity against thioacetamide-induced hepatic damage in rat at 6 mg/kg, expressed as % protection afforded in ALP levels
[4] = system: Rattus norvegicus; assay: Tested for hepatoprotective activity against thioacetamide-induced hepatic damage in rat at 6 mg/kg, expressed as % protection afforded in ACP levels
[5] = system: Rattus norvegicus; assay: Tested for hepatoprotective activity against thioacetamide-induced hepatic damage in rat at 6 mg/kg, expressed as % protection afforded in GIDH levels

| Molecule | Protection [1] [%] | Protection [2] [%] | Protection [3] [%] | Protection [4] [%] | Protection [5] [%] |
| --- | --- | --- | --- | --- | --- |
| COC(=O)C(C(C)=O)=C1SCCS1 | 7 | 0 | 0 | 9 | 0 |
| SILYMARIN | 50.1 | 47.2 | 47 | 43.6 | 39.8 |
| N#Cc1c(-c2ccccc2)cc(S)sc1=N | 41 | 35 | 30 | 47 | 47 |
| O=C(c1ccc(Cl)cc1)c1sc(=S)sc1SCc1ccccc1 | 80 | 39 | 3 | 4 | 15 |
| CCN(CC)C(=S)SC(C(=O)c1ccc(Cl)cc1)=C1SCCS1 | 46 | 0 | 0 | 27 | 5 |
| CCOC(=O)C(C(=O)c1ccccc1)=C1SCCS1 | 0 | 0 | 0 | 29 | 0 |
| N#CC(C(=O)c1ccc(Cl)cc1)=C1SCCCS1 | 63 | 0 | 0 | 0 | 0 |
| CCOC(=O)C(C#N)=C1SCCS1 | 74 | 73 | 11 | 35 | 46 |
| CCN(CC)C(=S)SC(C(=O)c1ccc(C)cc1)=C1SCCS1 | 56 | 0 | 0 | 70 | 93 |
| N#CC(C(=O)c1ccccc1)=C1SCCCS1 | 0 | 0 | 0 | 0 | 0 |
| N#Cc1c(SCCS)n[nH]c1N | 0 | 0 | 0 | 9 | 0 |
| N#CC(C(=O)c1ccc(Cl)cc1)=C1SCCS1 | 0 | 0 | 0 | 0 | 0 |
| CC(=O)C(C(C)=O)=C1SCCCS1 | 27 | 0 | 67 | 0 | 0 |
| CCN(CC)C(=S)SC(C(=O)c1ccc(Br)cc1)=C1SCCCS1 | 38 | 0 | 0 | 20 | 0 |
| COC(=O)C(C(C)=O)=C1SCCCS1 | 66 | 0 | 14 | 0 | 68 |
| CC(=O)C(C(C)=O)=C1SCCS1 | 67 | 40 | 0 | 0 | 8 |
| CCOC(=O)C(C(=O)c1ccccc1)=C1SCCCS1 | 35 | 45 | 0 | 7 | 23 |
| CC(C)OC(=O)C(C(=O)OC(C)C)=C1SCCS1 [ISOPROTHIOLANE] | 92 | 77 | 0 | 0 | 0 |
| CCOC(=O)C(C#N)=C1SCCCS1 | 84 | 59 | 76 | 0 | 0 |
| CCOC(=O)C(C(=O)OCC)=C1SCCS1 | 0 | 0 | 0 | 39 | 2 |
| N#CC(C(=O)c1ccccc1)=C1SCCS1 | 0 | 0 | 31 | 0 | 0 |
| CCN(CC)C(=S)SC(C(=O)c1ccc(Cl)cc1)=C1SCCCS1 | 85 | 0 | 37 | 6 | 26 |
| O=C(C(C(=O)c1ccccc1)=C1SCCS1)c1ccccc1 | 0 | 0 | 34 | 8 | 0 |
